Like-named read-outs stand apart in the source and are kept apart here.
Key:
[1] = Simultaneous distribution of 99mTc-EHDP and 85Sr in rabbits at 1-24 hours after intravenous injection; type: in vivo, adult New Zealand albino rabbits; settings: for Blood, % Dose in Whole Organ: blood as 7 % of body weight; for Bone(Avg), % dose in whole organ: bone as 10 % of body weight; for Marrow, % Dose in Whole Organ: marrow as 2.2 % of body weight; for Muscle, % Dose in Whole Organ: muscle as 43 % of body weight
Experimental: Adult New Zealand albino rabbits having an average weight of 3.8 kg were utilized. Strontium-85 was employed as a standard for comparison. […] Each dosage is contained in a volume of 1 ml.
Multiple samples were counted from the tibia, femur, spine and pelvic bones; the total activity in the skeleton was estimated by assuming the whole skeleton consisted of equal proportions by weight of tibia, spine, femur and pelvis and that the skeletal mass was 10% of the body weight. […] The whole liver and both kidneys were weighed and multiple samples from each were counted to measure the total activity in each organ.

[2] = test system: callous of three week-old fractures of tibia; assay: Localization in callous of three week-old tibial fractures (rabbits), compared with strontium-85; type: in vivo, albino rabbits
Experimental: Adult New Zealand albino rabbits having an average weight of 3.8 kg were utilized. Strontium-85 was employed as a standard for comparison. In a typical experiment 20-250 μCi (i.e., containing approximately 1 mg/kg as the free acid of body weight) of 99mTc EHDP were injected intravenously into the rabbits through the marginal ear vein and compared with 10-20 μ Ci 85 Sr chloride administered simutaneously. Each dosage is contained in a volume of 1 ml.
The animals were sacrificed serially from 1 to 24 hours after injection and the activities in major organs were determined by counting multiple samples from each organ in a scintillation well counter (the technetium-99m counts were corrected for the Compton contributions from the strontium-85 activity in the technetium-99m energy window). Multiple samples were counted from the tibia, femur, spine and pelvic bones; the total activity in the skeleton was estimated by assuming the whole skeleton consisted of equal proportions by weight of tibia, spine, femur and pelvis and that the skeletal mass was 10% of the body weight. The red marrow was sampled from the femur and the total marrow was assumed to be 2.2% of the total body weight. Similarly, blood volume was assumed to be 7% and the skeletal muscle 43% of the body weight. The whole liver and both kidneys were weighed and multiple samples from each were counted to measure the total activity in each organ.
In another series of experiments carried out as described above, localization of technetium from its tin-phosphonate complex was determined in the callous of three week-old fractures of tibia in albino rabbits, again in comparison with strontium-85. Comparative radioassay of technetium-99m administered as the pertechnetate was measured in the callous of tibial fractures in rabbits at one and four hours after administration.

[3] = 2 Hrs
[4] = radioactive decay; cited from earlier work

SMILES: [85Sr+2].[Cl-].[Cl-] [85Sr, reference compound]
- Bone(Avg), % dose / 1 % body weight ([1]; 1 Hr): 5.60 % dose / 1 % body weight
- Femur, % dose / 1 % body weight ([1]; 1 Hr): 4.90 % dose / 1 % body weight
- Kidneys, % Dose in Whole Organ ([1]; 1 Hr): 0.80 % dose
- Pelvis, % dose / 1 % body weight ([1]; 1 Hr): 7.07 % dose / 1 % body weight
- Spine, % dose / 1 % body weight ([1]; 1 Hr): 7.03 % dose / 1 % body weight
- Tibia, % dose / 1 % body weight ([1]; 1 Hr): 3.62 % dose / 1 % body weight
- Urine, % Dose ([1]; 1 Hr): 6.96 % dose
- Blood, % Dose in Whole Organ ([1]; 1 Hr): 11.9 % dose
- Bone(Avg), % dose in whole organ ([1]; 1 Hr): 56.0 % dose
- Marrow, % Dose in Whole Organ ([1]; 1 Hr): 0.91 % dose
- Muscle, % Dose in Whole Organ ([1]; 1 Hr): 13.4 % dose
- Bone(Avg), % dose / 1 % body weight ([1]; 2 Hrs): 6.44 % dose / 1 % body weight
- Femur, % dose / 1 % body weight ([1]; 2 Hrs): 5.74 % dose / 1 % body weight
- Kidneys, % Dose in Whole Organ ([1]; 2 Hrs): 0.64 % dose
- Pelvis, % dose / 1 % body weight ([1]; 2 Hrs): 7.70 % dose / 1 % body weight
- Spine, % dose / 1 % body weight ([1]; 2 Hrs): 7.59 % dose / 1 % body weight
- Tibia, % dose / 1 % body weight ([1]; 2 Hrs): 4.73 % dose / 1 % body weight
- Urine, % Dose ([1]; 2 Hrs): 18.0 % dose
- Blood, % Dose in Whole Organ ([1]; 2 Hrs): 7.08 % dose
- Bone(Avg), % dose in whole organ ([1]; 2 Hrs): 49.4 % dose
- Marrow, % Dose in Whole Organ ([1]; 2 Hrs): 0.76 % dose
- Muscle, % Dose in Whole Organ ([1]; 2 Hrs): 8.8 % dose
- Bone(Avg), % dose / 1 % body weight ([1]; 4 Hrs): 6.81 % dose / 1 % body weight
- Femur, % dose / 1 % body weight ([1]; 4 Hrs): 6.17 % dose / 1 % body weight
- Kidneys, % Dose in Whole Organ ([1]; 4 Hrs): 0.34 % dose
- Pelvis, % dose / 1 % body weight ([1]; 4 Hrs): 8.02 % dose / 1 % body weight
- Spine, % dose / 1 % body weight ([1]; 4 Hrs): 7.82 % dose / 1 % body weight
- Tibia, % dose / 1 % body weight ([1]; 4 Hrs): 5.13 % dose / 1 % body weight
- Urine, % Dose ([1]; 4 Hrs): 22.7 % dose
- Blood, % Dose in Whole Organ ([1]; 4 Hrs): 3.85 % dose
- Bone(Avg), % dose in whole organ ([1]; 4 Hrs): 68.1 % dose
- Marrow, % Dose in Whole Organ ([1]; 4 Hrs): 0.50 % dose
- Muscle, % Dose in Whole Organ ([1]; 4 Hrs): 6.46 % dose
- Bone(Avg), % dose / 1 % body weight ([1]; 24 Hrs): 5.21 % dose / 1 % body weight
- Femur, % dose / 1 % body weight ([1]; 24 Hrs): 4.83 % dose / 1 % body weight
- Kidneys, % Dose in Whole Organ ([1]; 24 Hrs): 0.03 % dose
- Marrow, % dose / 1 % body weight ([1]; 24 Hrs): 0.05 % dose / 1 % body weight
- Pelvis, % dose / 1 % body weight ([1]; 24 Hrs): 5.26 % dose / 1 % body weight
- Spine, % dose / 1 % body weight ([1]; 24 Hrs): 6.47 % dose / 1 % body weight
- Tibia, % dose / 1 % body weight ([1]; 24 Hrs): 4.27 % dose / 1 % body weight
- Blood, % Dose in Whole Organ ([1]; 24 Hrs): 0.29 % dose
- Bone(Avg), % dose in whole organ ([1]; 24 Hrs): 51.9 % dose
- Marrow, % Dose in Whole Organ ([1]; 24 Hrs): 0.10 % dose
- Muscle, % Dose in Whole Organ ([1]; 24 Hrs): 1.00 % dose
- Callus, % dose / 1 % body weight ([2]; 1 Hr): 31.2 % dose / 1 % body weight
- Callus, % dose / 1 % body weight ([2]; 4 Hrs): 37.7 % dose / 1 % body weight
- Blood, % Dose in Whole Organ ([3]; AEDP 0.01 mg/kg): 2.99 % Dose
- Kidneys, % Dose in Whole Organ ([3]; AEDP 0.01 mg/kg): 0.329 % Dose
- Liver, % Dose in Whole Organ ([3]; AEDP 0.01 mg/kg): 0.568 % Dose
- Marrow, % Dose in Whole Organ ([3]; AEDP 0.01 mg/kg): 0.465 % Dose
- Urine, % Dose ([3]; AEDP 0.01 mg/kg): 20.97 % Dose
- Blood, % Dose in Whole Organ ([3]; AEDP 0.05 mg/kg): 2.50 % Dose
- Kidneys, % Dose in Whole Organ ([3]; AEDP 0.05 mg/kg): 0.353 % Dose
- Liver, % Dose in Whole Organ ([3]; AEDP 0.05 mg/kg): 0.613 % Dose
- Marrow, % Dose in Whole Organ ([3]; AEDP 0.05 mg/kg): 0.486 % Dose
- Urine, % Dose ([3]; AEDP 0.05 mg/kg): 11.95 % Dose
- Blood, % Dose in Whole Organ ([3]; AEDP 0.1 mg/kg): 2.48 % Dose
- Kidneys, % Dose in Whole Organ ([3]; AEDP 0.1 mg/kg): 0.324 % Dose
- Liver, % Dose in Whole Organ ([3]; AEDP 0.1 mg/kg): 0.654 % Dose
- Marrow, % Dose in Whole Organ ([3]; AEDP 0.1 mg/kg): 0.244 % Dose
- Urine, % Dose ([3]; AEDP 0.1 mg/kg): 12.1 % Dose
- Blood, % Dose in Whole Organ ([3]; AEDP 0.5 mg/kg): 4.36 % Dose
- Kidneys, % Dose in Whole Organ ([3]; AEDP 0.5 mg/kg): 0.384 % Dose
- Liver, % Dose in Whole Organ ([3]; AEDP 0.5 mg/kg): 0.720 % Dose
- Urine, % Dose ([3]; AEDP 0.5 mg/kg): 10.47 % Dose
- Urine, % Dose ([3]; EHDP 0.01 mg/kg): 23.66 % Dose
- Urine, % Dose ([3]; EHDP 0.05 mg/kg): 13.4 % Dose
- Urine, % Dose ([3]; EHDP 0.1 mg/kg): 11.31 % Dose
- Urine, % Dose ([3]; EHDP 0.5 mg/kg): 19.6 % Dose
- Blood, % Dose in Whole Organ ([3]; MDP 0.01 mg/kg): 3.27 % Dose
- Kidneys, % Dose in Whole Organ ([3]; MDP 0.01 mg/kg): 0.34 % Dose
- Liver, % Dose in Whole Organ ([3]; MDP 0.01 mg/kg): 0.65 % Dose
- Marrow, % Dose in Whole Organ ([3]; MDP 0.01 mg/kg): 0.53 % Dose
- Muscle, % Dose in Whole Organ ([3]; MDP 0.01 mg/kg): 5.69 % Dose
- One Femur, % Dose in Whole Organ ([3]; MDP 0.01 mg/kg): 3.46 % Dose
- Urine, % Dose ([3]; MDP 0.01 mg/kg): 10.3 % Dose
- Blood, % Dose in Whole Organ ([3]; MDP 0.05 mg/kg): 3.66 % Dose
- Kidneys, % Dose in Whole Organ ([3]; MDP 0.05 mg/kg): 0.46 % Dose
- Liver, % Dose in Whole Organ ([3]; MDP 0.05 mg/kg): 0.71 % Dose
- Marrow, % Dose in Whole Organ ([3]; MDP 0.05 mg/kg): 0.53 % Dose
- Muscle, % Dose in Whole Organ ([3]; MDP 0.05 mg/kg): 5.89 % Dose
- One Femur, % Dose in Whole Organ ([3]; MDP 0.05 mg/kg): 2.53 % Dose
- Urine, % Dose ([3]; MDP 0.05 mg/kg): 23.16 % Dose
- Blood, % Dose in Whole Organ ([3]; MDP 0.1 mg/kg): 3.95 % Dose
- Kidneys, % Dose in Whole Organ ([3]; MDP 0.1 mg/kg): 0.66 % Dose
- Liver, % Dose in Whole Organ ([3]; MDP 0.1 mg/kg): 1.05 % Dose
- Marrow, % Dose in Whole Organ ([3]; MDP 0.1 mg/kg): 0.57 % Dose
- Muscle, % Dose in Whole Organ ([3]; MDP 0.1 mg/kg): 9.32 % Dose
- One Femur, % Dose in Whole Organ ([3]; MDP 0.1 mg/kg): 2.80 % Dose
- Urine, % Dose ([3]; MDP 0.1 mg/kg): 15.4 % Dose
- Blood, % Dose in Whole Organ ([3]; MDP 0.5 mg/kg): 3.11 % Dose
- Kidneys, % Dose in Whole Organ ([3]; MDP 0.5 mg/kg): 0.45 % Dose
- Liver, % Dose in Whole Organ ([3]; MDP 0.5 mg/kg): 0.69 % Dose
- Marrow, % Dose in Whole Organ ([3]; MDP 0.5 mg/kg): 0.67 % Dose
- Muscle, % Dose in Whole Organ ([3]; MDP 0.5 mg/kg): 5.65 % Dose
- One Femur, % Dose in Whole Organ ([3]; MDP 0.5 mg/kg): 2.96 % Dose
- Urine, % Dose ([3]; MDP 0.5 mg/kg): 15.16 % Dose
- half-life of radionuclide [4]: 65 days

Reference: patent US3989730A, “Bone-seeking technetium-99m complex” (priority 1973, dated 1976)
